Source: the supplement of paper PMC10627819

What was measured:
Details in all cases: main component drawn
[1] = test system: B. subtilis 168; assay: fitness (endpoint OD595 vs no drug) (fraction); higher = more growth
Outline: (§1)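 Fitness is computed from the optical density at which cultures reach stationary phase, divided by the robust mean of no-drug control wells. Any value above 1 is set to 1. Cultures started at OD595 0.01 in 384-well plates with TSB, LB Lennox or CY at 37 °C, and OD595 was read every 30 min for 14 h against a first-reading background.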

[2] = test system: S. pneumoniae D39V; assay: as above
Outline: as §1

[3] = test system: B. subtilis 168; assay: Bliss interaction score (quartile over a dose matrix) (fitness difference); higher = more antagonism (negative = synergy)
Outline: (§2)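 Fitness was defined as normalised growth: OD595 at the start of stationary phase divided by the plate's robust no-drug mean and capped at 1. Single-drug fitness was inferred from combination measurements. The Bliss score is observed fitness minus the product of the single-drug values, summarised by quartiles across technical, biological and donor/recipient replicates.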

[4] = test system: S. aureus DSM 20231; assay: as above
Outline: as §2

[5] = test system: S. aureus Newman; assay: as above
Outline: as §2

[6] = test system: S. pneumoniae D39V; assay: as above
Outline: as §2
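Wherever Bliss interaction score (quartile over a dose matrix) is given: first quartile when negative (synergy) and third quartile when positive (antagonism).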
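Wherever fitness (endpoint OD595 vs no drug) is given: OD595 on entry to stationary phase over no-drug wells; at most 1.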

CNC(C)C1CCC(N)C(OC2C(N)CC(N)C(OC3OCC(C)(O)C(NC)C3O)C2O)O1 (stereo not given) [Gentamicin] + CC(=O)NC[C@H]1CN(c2ccc(N3CCOCC3)c(F)c2)C(=O)O1 [Linezolid]
[1], partner 0.0625 µg/mL, one replicate
Details | fitness
first compound 0.0625 µg/mL | 0.827
first compound 0.125 µg/mL | 0.0748
first compound 0.25 µg/mL | 0.0626

fitness, [2]
Details | partner 0.105 µg/mL | partner 0.2 µg/mL | partner 0.21 µg/mL | partner 0.4 µg/mL | partner 0.42 µg/mL | partner 0.8 µg/mL
first compound 2 µg/mL | 0.881 | 0.414 | 0.767 | 0.228 | 0.636 | 0.0665
first compound 4 µg/mL | 0.908 | 0.408 | 0.759 | 0.215 | 0.6 | 0.0715
first compound 8 µg/mL | 0.843 | 0.37 | 0.758 | 0.212 | 0.579 | 0.0595

Details | Bliss interaction score
[3] | 0.144
[4] | 0.0779
[5] | 0.0901
[6] | -0.136

CNC(C)C1CCC(N)C(OC2C(N)CC(N)C(OC3OCC(C)(O)C(NC)C3O)C2O)O1 (stereo not given) [Gentamicin] + CCC(C)C1C(=O)NC(=C)C(=O)NC(C(=O)NC(CSCC(C(=O)N1)NC(=O)/C(=C/C)/NC(=O)C(C(C)CC)N)C(=O)NC2C(SCC(NC(=O)CNC(=O)C3CCCN3C2=O)C(=O)NC(CCCCN)C(=O)NC4C(SCC(NC(=O)CNC(=O)C(NC(=O)C(NC(=O)C(NC(=O)CNC4=O)C)CC(C)C)CCSC)C(=O)NC(CC(=O)N)C(=O)NC(CCSC)C(=O)NC(CCCCN)C(=O)NC5C(SCC6C(=O)NC(C(=O)NC(CSC(C(C(=O)N6)NC(=O)C(NC5=O)C)C)C(=O)NC(CO)C(=O)NC(C(C)CC)C(=O)NC(CC7=CN=CN7)C(=O)NC(C(C)C)C(=O)NC(=C)C(=O)NC(CCCCN)C(=O)O)CC8=CN=CN8)C)C)C)CC(C)C [Nisin]
Details | fitness
[1], first compound 0.0625 µg/mL, partner 0.5 µg/mL | 0.865
[1], first compound 0.0625 µg/mL, partner 1 µg/mL | 0.793
[1], first compound 0.125 µg/mL, partner 0.5 µg/mL | 0.768
[1], first compound 0.125 µg/mL, partner 2 µg/mL | 0.213
[1], first compound 0.25 µg/mL, partner 0.5 µg/mL | 0.27
[1], first compound 0.25 µg/mL, partner 1 µg/mL | 0.102
[1], first compound 0.25 µg/mL, partner 2 µg/mL | 0.057
[2], first compound 2 µg/mL, partner 0.4275 µg/mL | 0.957
[2], first compound 2 µg/mL, partner 0.855 µg/mL | ≥ 1
[2], first compound 2 µg/mL, partner 1.6 µg/mL | 0.0179
[2], first compound 2 µg/mL, partner 1.71 µg/mL | 0.0948
[2], first compound 2 µg/mL, partner 3.2 µg/mL | 0.0145
[2], first compound 2 µg/mL, partner 6.4 µg/mL | 0.0183
[2], first compound 4 µg/mL, partner 0.4275 µg/mL | 0.999
[2], first compound 4 µg/mL, partner 0.855 µg/mL | ≥ 1
[2], first compound 4 µg/mL, partner 1.6 µg/mL | 0.0111
[2], first compound 4 µg/mL, partner 1.71 µg/mL | 0.07
[2], first compound 4 µg/mL, partner 3.2 µg/mL | 0.0177
[2], first compound 4 µg/mL, partner 6.4 µg/mL | 0.0081
[2], first compound 8 µg/mL, partner 0.4275 µg/mL | 0.99
[2], first compound 8 µg/mL, partner 0.855 µg/mL | 0.986
[2], first compound 8 µg/mL, partner 1.6 µg/mL | 0.0051
[2], first compound 8 µg/mL, partner 1.71 µg/mL | 0.0917
[2], first compound 8 µg/mL, partner 3.2 µg/mL | 0.0325
[2], first compound 8 µg/mL, partner 6.4 µg/mL | 0.0106

fitness, [1], one replicate
Details | partner 1.25 µg/mL | partner 1.6 µg/mL | partner 2.5 µg/mL | partner 3.2 µg/mL | partner 4 µg/mL | partner 5 µg/mL | partner 6.4 µg/mL | partner 8 µg/mL | partner 16 µg/mL
first compound 0.0625 µg/mL | 0.861 | 0.703 | 0.037 | 0.0387 | 0.0303 | 0.0263 | 0.0574 | 0.0215 | 0.0053
first compound 0.125 µg/mL | 0.378 | 0.504 | 0.0311 | 0.0535 | 0.0234 | 0.0338 | 0.0847 | 0.0224 | 0.0101
first compound 0.25 µg/mL | 0.078 | 0.0505 | 0.0563 | 0.0642 | 0.0357 | 0.0313 | 0.0596 | 0.0124 | 0.007

Details | Bliss interaction score
[3] | -0.0796
[4] | 0.227
[5] | 0.0431
[6] | -0.0396

CNC(C)C1CCC(N)C(OC2C(N)CC(N)C(OC3OCC(C)(O)C(NC)C3O)C2O)O1 (stereo not given) [Gentamicin] + CCC[C@@H]1C[C@@H](C(=O)N[C@@H]([C@H]2O[C@H](SC)[C@H](O)[C@@H](O)[C@H]2O)[C@@H](C)O)N(C)C1 [Lincomycin]
fitness
Details | partner 0.1 µg/mL | partner 0.2 µg/mL | partner 0.215 µg/mL | partner 0.4 µg/mL | partner 0.43 µg/mL | partner 0.8 µg/mL | partner 0.86 µg/mL
[1], first compound 0.0625 µg/mL | 0.851 | 0.858 | – | 0.911 | – | – | –
[1], first compound 0.25 µg/mL | 0.038 | 0.0459 | – | 0.121 | – | – | –
[2], first compound 2 µg/mL | – | 0.465 | 0.858 | 0.285 | 0.795 | 0.0324 | 0.558
[2], first compound 4 µg/mL | – | 0.455 | 0.843 | 0.257 | 0.716 | 0.0339 | 0.397
[2], first compound 8 µg/mL | – | 0.389 | 0.834 | 0.212 | 0.741 | 0.0377 | 0.41

fitness, [1], one replicate
Details | first compound 0.0625 µg/mL | first compound 0.125 µg/mL | first compound 0.25 µg/mL
partner 0.8 µg/mL | 0.989 | 0.881 | 0.32
partner 1.6 µg/mL | 0.921 | 0.895 | 0.367

Details | Bliss interaction score
[3] | 0.1
[4] | 0.106
[5] | 0.0735
[6] | -0.0859
